Like-named read-outs stand apart in the source and are kept apart here.
Key:
[1] = tested on: HEK293 cells expressing H30 indicator; experiment: Uptake in living cells, Epac-based FRET cAMP indicator H30; format: cell-based; conditions: 100 μM IBMX
From the text: Since FRET depends on the distance between the two fluorophores which in turn is ligand-dependent, this probe is used to estimate the intracellular level of cAMP or -analogs.
We can not exclude, however, that the Epac- based FRET sensor used for the measurements preferentially binds Sp-5,6-DCl-cBIMPS.
The ratio between the background subtracted emission intensities at 480 nm and 545 nm is plotted as a function of time. […] The insets show the yellow fluorescent protein fluorescence at the beginning of the experiments and the regions of interest where FRET ratios are calculated.
For transient expression of the H30 sensor, cells were seeded onto 24-mm diameter round glass coverslips, and transfections were performed at 50–70% confluence with FuGENE-6 transfection reagent (Roche). Imaging experiments were performed after about 24 h. Cells were maintained in Hepes-buffered Ringer-modified solution, containing 125 mM NaCl, 5 mM KCl, 1 mM Na3PO4, 1 mM MgS0_4, 5.5 mM glucose, 1 mM CaCl2, and 20 mM Hepes, pH 7.4, at room temperature and treated with 100 μM 3-Isobutyl-1-methylxanthine (IBMX, Sigma-Aldrich) 10 minutes before the experiments. […] FRET variations were measured as changes of the ratio between the background-subtracted fluorescence emission intensities at 480 nm and 545 nm, on excitation at 430 nm. […]

RIα subunit = target: T1, RIα subunit (Homo sapiens, UniProt P10644); experiment: Fluorescence polarization displacement of 8-Fluo-cAMP from RIα subunit; format: binding; conditions: 2.5 nM RIα, 1 nM 8-Fluo-cAMP
T1 construct: made in house; host or cells: E. coli BL21 (DE3) Codon Plus RIL
T1 sequence (P10644 whole entry): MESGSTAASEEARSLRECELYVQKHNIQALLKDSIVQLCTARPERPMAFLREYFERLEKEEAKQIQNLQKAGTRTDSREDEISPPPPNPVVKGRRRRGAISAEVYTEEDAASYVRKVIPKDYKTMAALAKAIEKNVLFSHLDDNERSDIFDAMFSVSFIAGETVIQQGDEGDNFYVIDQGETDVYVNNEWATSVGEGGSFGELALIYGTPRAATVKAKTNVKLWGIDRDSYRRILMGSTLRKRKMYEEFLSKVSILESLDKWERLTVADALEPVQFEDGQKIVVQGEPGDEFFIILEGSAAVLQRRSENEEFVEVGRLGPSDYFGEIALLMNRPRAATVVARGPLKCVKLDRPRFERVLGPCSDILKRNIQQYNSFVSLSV
Description: (§1) . Figure 3 Competitive nucleotide binding assay using fluorescence polarization. […] 2.5 nM R subunit was added and fluorescence polarization was determined at Ex485 nm/Em535 nm. […] Each data point represents the mean +/- S.E.M. from at least triplicate measurements.
(§2) For expression of PKA regulatory subunits, one liter of Luria Broth medium containing 100 μg/ml of ampicillin was inoculated with E. coli BL21 (DE3) Codon Plus RIL cells (Stratagene) transformed with human RIα, RIβ, RIIα (in pRSETB) or rat RIIβ (in pETIIc) and grown at 37°C to an OD600 nm of 0.8. Recombinant protein expression was induced by addition of […] isopropyl-β-D-thiogalactopyranoside (IPTG) and the culture was incubated at 25°C for additional 17–18 h. The pellets were stored at -20°C.
(§3) The fluorescence polarization displacement assay was performed as described before. […] Fluorescence polarization was measured after 5 minutes of incubation at room temperature.

RIIα subunit = experiment: Fluorescence polarization displacement of 8-Fluo-cAMP from RIIα subunit; format: binding, human; conditions: 2.5 nM RIIα, 1 nM 8-Fluo-cAMP
Description: as §1, §2, §3

RIIβ subunit = experiment: Fluorescence polarization displacement of 8-Fluo-cAMP from RIIβ subunit; format: binding, rat; conditions: 2.5 nM RIIβ, 1 nM 8-Fluo-cAMP
Description: as §1, §2, §3

PKA-Iα holoenzyme = target: T2, PKA-Iα holoenzyme (Homo sapiens, UniProt P10644); experiment: PKA holoenzyme activation, coupled spectrophotometric kinase assay with Kemptide (RIα + Cα); format: biochemical, human RIα, murine Cα; conditions: 20 nM PKA-Cα, 260 μM Kemptide; cAMP value printed with refs 27, 28 and Fig. 4a; read-out: apparent activation constant (EC50), RIα holoenzyme
T2 construct: made in house; host or cells: E. coli BL21 (DE3) / BL21 (DE3) Codon Plus RIL
T2 sequence (P10644 whole entry): as above
Description: (§4) Kinase activity was assayed spectrophotometrically, using the synthetic heptapeptide Kemptide as a substrate. […] Each data point represents the mean ± S.D. of two measurements.

PKA-IIα holoenzyme = target: T3, PKA-IIα holoenzyme (Homo sapiens, UniProt P13861); experiment: PKA holoenzyme activation, coupled spectrophotometric kinase assay with Kemptide (RIIα + Cα); format: biochemical, human RIIα, murine Cα; conditions: relative to cAMP
T3 construct: made in house; host or cells: E. coli BL21 (DE3) / BL21 (DE3) Codon Plus RIL
T3 sequence (P13861 whole entry): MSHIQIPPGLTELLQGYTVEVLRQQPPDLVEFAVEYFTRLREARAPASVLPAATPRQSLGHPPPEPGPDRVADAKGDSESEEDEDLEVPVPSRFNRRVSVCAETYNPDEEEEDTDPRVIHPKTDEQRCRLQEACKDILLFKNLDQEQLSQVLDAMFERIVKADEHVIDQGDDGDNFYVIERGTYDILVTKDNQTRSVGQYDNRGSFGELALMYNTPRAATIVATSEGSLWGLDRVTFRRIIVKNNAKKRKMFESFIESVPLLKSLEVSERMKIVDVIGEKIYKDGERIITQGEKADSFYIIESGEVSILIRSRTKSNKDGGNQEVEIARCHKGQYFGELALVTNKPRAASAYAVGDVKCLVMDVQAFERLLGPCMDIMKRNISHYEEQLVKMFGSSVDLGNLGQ
Description: as §4

PKA-IIβ holoenzyme = target: T4, PKA-IIβ holoenzyme (Rattus norvegicus, UniProt P12369); experiment: PKA holoenzyme activation, coupled spectrophotometric kinase assay with Kemptide (RIIβ + Cα); format: biochemical, rat RIIβ, murine Cα; conditions: relative to cAMP
T4 construct: made in house; host or cells: E. coli BL21 (DE3) / BL21 (DE3) Codon Plus RIL
T4 sequence (P12369 whole entry): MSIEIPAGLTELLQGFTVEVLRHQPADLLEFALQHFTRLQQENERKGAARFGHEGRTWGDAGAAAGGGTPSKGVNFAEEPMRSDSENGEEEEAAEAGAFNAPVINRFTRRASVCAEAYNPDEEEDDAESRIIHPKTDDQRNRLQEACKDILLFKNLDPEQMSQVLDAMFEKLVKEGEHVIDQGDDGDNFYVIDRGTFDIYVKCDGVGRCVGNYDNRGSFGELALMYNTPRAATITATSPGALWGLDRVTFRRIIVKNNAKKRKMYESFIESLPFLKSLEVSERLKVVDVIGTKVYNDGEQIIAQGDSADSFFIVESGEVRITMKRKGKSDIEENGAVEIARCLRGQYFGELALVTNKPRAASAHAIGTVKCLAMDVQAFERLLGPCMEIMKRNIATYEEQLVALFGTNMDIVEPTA
Description: as §4

PDE4D5 = PDE4D5 (Homo sapiens, UniProt Q08499); experiment: Stability towards phosphodiesterase, coupled spectrophotometric activity assay; conditions: 15 minutes of assay duration
Chain of PDE4D5 (Q08499 1-745 isoform Q08499-6): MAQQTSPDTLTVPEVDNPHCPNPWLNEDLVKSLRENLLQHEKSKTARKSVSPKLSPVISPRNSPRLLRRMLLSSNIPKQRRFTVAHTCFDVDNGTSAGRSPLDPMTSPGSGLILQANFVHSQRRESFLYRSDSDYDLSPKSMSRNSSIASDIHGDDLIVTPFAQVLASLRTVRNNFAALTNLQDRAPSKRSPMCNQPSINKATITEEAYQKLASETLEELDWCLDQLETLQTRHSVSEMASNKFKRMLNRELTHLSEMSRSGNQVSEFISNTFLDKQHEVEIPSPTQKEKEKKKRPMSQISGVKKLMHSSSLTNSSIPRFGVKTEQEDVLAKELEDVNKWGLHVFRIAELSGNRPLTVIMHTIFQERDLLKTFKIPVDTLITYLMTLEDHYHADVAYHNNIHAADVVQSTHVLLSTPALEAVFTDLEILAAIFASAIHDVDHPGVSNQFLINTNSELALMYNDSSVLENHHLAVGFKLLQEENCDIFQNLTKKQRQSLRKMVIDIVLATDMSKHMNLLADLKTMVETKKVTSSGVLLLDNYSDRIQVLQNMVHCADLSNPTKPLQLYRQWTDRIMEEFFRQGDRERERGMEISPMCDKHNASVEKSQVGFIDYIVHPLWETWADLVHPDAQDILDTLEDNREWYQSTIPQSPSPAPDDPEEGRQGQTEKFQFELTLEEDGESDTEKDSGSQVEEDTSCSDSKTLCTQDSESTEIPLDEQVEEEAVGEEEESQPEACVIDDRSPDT
From the text: Absolutely stable analogs would arise from conjugating the Pharos fluorophore to phosphorothioate- modified structures such as Rp- or Sp-cAMPS (Rp- or Sp-diastereomer of adenosine 3'-5'-monophosphorothiorate).

[2] = target: T5, GFP-hRIα expressed in COS-7 cells (Homo sapiens, UniProt P10644); experiment: Co-localization with GFP-tagged RIα by confocal microscopy; format: cell-based; conditions: 500 μM, 30 minutes
T5 construct: expressed in transfected cells; host or cells: COS-7
T5 sequence (P10644 whole entry): as the sequence (P10644 whole entry) above
Description: (§5) The scale bar indicates 10 μm.
(§6) Cloning of the R subunits into the expression vector hpGFP^2-N2 (PerkinElmer) was performed as described previously. […] Cellular imaging was performed on a confocal microscope (Leica) with a Plan apo 100× oil immersion objective (Leica).

[3] = target: T6, GFP-hRIIα expressed in COS-7 cells (Homo sapiens, UniProt P13861); experiment: Co-localization with GFP-tagged RIIα by confocal microscopy; format: cell-based; conditions: 500 μM, 30 minutes
T6 construct: expressed in transfected cells; host or cells: COS-7
T6 sequence (P13861 whole entry): as the sequence (P13861 whole entry) above
Description: as §5, §6

[4] = Absorption and fluorescence spectra, relative quantum yield; format: physicochemical; conditions: pH 7.0
From the text: First we determined the photo-chemical properties of the free Pharos dye. The Stokes shift at pH 6.0, pH 7.0 and pH 7.4 was 42 nm resulting from an absorption maximum at 575 nm and an emission maximum at 617 nm (Fig. 1; […]
Figure 1 Fluorescence absorption and emission spectra of the Pharos dye. The absorption maxima of the Pharos dye dissolved in buffer with the indicated pH values is at 575 nm, whereas the emission maxima are at 617 nm.
To calculate the relative quantum yield ϕ of the Pharos dye the absorption (500 nm to 640 nm) and fluorescence (λex = 553 nm, λem ranging from 558 nm to 800 nm) spectra of several Pharos dye concentrations (640 nM to 64.2 μM) were recorded using quinine sulfate as a standard. The determination of the relative quantum yield is generally accomplished by plotting the integrated fluorescence intensity versus the absorbance at the excitation wavelength (see Additional file 1, panel a). By comparing the slope of the linear regression (see Additional file 1, panel b) with that of a standard substance (quinine sulfate), the relative quantum yield of the Pharos dye was determined to be 30%.
The Pharos dye was diluted in 20 mM 2-(4-morpholino)-ethane sulfonic acid (MES) buffer adjusted to pH 6.0, pH 7.0 and pH 7.4, and all samples were degassed by bubbling nitrogen through the solution before measuring the absorption or fluorescence spectra. […]

[5] = target: T7, PKA-IIα sensor (RIIα-RLuc / GFP2-Cα) in COS-7 cells (Homo sapiens, UniProt P13861); experiment: BRET assay of PKA holoenzyme dissociation in living cells; conditions: 30 minutes
T7 sequence (P13861 whole entry): as above
From the text: In this assay, a decrease in BRET signal indicates intracellular dissociation of the PKA holoenzyme [42].
BRET signals were obtained after addition of the luciferase substrate DeepBlueC™ and detection of luciferase and fluorescence light emission using a multi-label reader. Shown is a representative experiment, repeated three times; data are mean ± S.E.M., performed with n = 6 replicates. […] Briefly, cells were co-transfected with a constant amount of BRET donor (hRIIα-Rluc) and an increasing amount of acceptor DNA (GFP^2-hCα) as indicated. […] The BRET values of two independent experiments, each performed with n = 6 replicates, were background subtracted, normalized and plotted as mean ± S.E.M.
COS-7 cells were used for BRET experiments. […] For the BRET read-out, the luciferase substrate DeepBlueC™ (PerkinElmer) was added at a final concentration of 5 μM in a total volume of 50 μl D-PBS. […] Control measurements with cells expressing RLuc and GFP proteins without a fusion partner yield the background BRET signal. A BRET titration (bystander BRET test) was performed by co-transfection of COS-7 cells with a constant donor-expression plasmid (0.5 μg) with an increasing amount of acceptor-expression plasmid (0–2 μg). The cells were treated as described above.

[6] = Retention-based lipophilicity by reversed phase HPLC (logKw)
[7] = target: T7, PKA-IIα sensor (RIIα-RLuc / GFP2-Cα) in COS-7 cells; parameters: expressed in transfected cells; host or cells: COS-7; method as in PMID 16524697; conditions: living cells; read-out: EC50, holoenzyme dissociation by BRET; cited from earlier work

For `O[C@@H]1[C@@H]2OP(O)(=S)OC[C@H]2O[C@H]1n1cnc2cc(Cl)c(Cl)cc21` (single isomer, unassigned) [Sp-5,6-DCl-cBIMPS, 5,6-dichlorobenzimidazole riboside-3',5'-cyclic monophosphorothioate, Sp-isomer, reference compound], the “state of the fluorescent FRET probe after treatment” value ([1]; 500 μM, after 40 minutes of treatment) was “almost completely saturated”.
With “8-[Pharos-575]adenosine -3',5'-cyclic monophosphate [8-[ϕ-575]-cAMP]” the “binding to the R subunit compared with cAMP (displacement of 8-Fluo-cAMP)” value (RIα subunit) was “bound equally well”, the “times cAMP is more efficient in displacing 8-Fluo-cAMP compared to 8-[ϕ-575]-cAMP” value (RIIα subunit) was “about 10 times” and the “times cAMP is more efficient in displacing 8-Fluo-cAMP compared to 8-[ϕ-575]-cAMP” value (RIIβ subunit) was ~5 times. For the same compound, the EC50 (PKA-Iα holoenzyme) was 0.15 µM, the “apparent activation constant (EC50) compared to cAMP, RIIα holoenzyme” value (PKA-IIα holoenzyme) was “about two-fold increased” and the “apparent activation constant (EC50) compared to cAMP, RIIβ holoenzyme” value (PKA-IIβ holoenzyme) was “about two-fold increased”. For the same compound, the “concentration available to the intracellular fluorescent indicator” value ([1]; 500 μM added for one hour, estimated from cAMP dose-FRET response curve) was “about 7 μM”, the “degradation by PDE4D5” value (PDE4D5) was “No degradation” and the “co-localization with GFP-tagged RIα” value [2] was “co-localization”. For the same compound, the “co-localization with GFP-tagged RIIα” value [3] was “co-localization”, the emission maximum [4] was 605 nm and the excitation maximum [4] was 577 nm. For the same compound, the “inhibition of specific RIIα-Cα interaction (BRET titration)” value ([5]; 600 μM, COS-7 cells) was “about 50%”, the EC50 ([5]; read-out: concentration for half-maximal holoenzyme dissociation, added to intact COS-7 cells) was ~600 µM and the “increased lipophilicity compared to cAMP” value ([6]; from logKw) was “more than 70 times”. The logKw ([6]; reversed phase HPLC, YMC RP-18) was 2.95.
In the case of `Nc1ncnc2c1nc(Br)n2[C@@H]1O[C@@H]2COP(=O)(O)O[C@H]2[C@H]1O` [8-Br-cAMP, 8-Bromoadenosine-3',5'-cyclic monophosphate], the EC50 [7] is given as 1500 µM.

Reference: article PMC2443153 (BMC Biochemistry, 2008)
